# Test results as given in PubChem BioAssay (NCI).
# Where “and” joins values, the source holds several entries; their conditions need not be identical. Identical values can stand only once.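 All cell lines were grown in 96-well plates and treated with compound for 48 hours. Abbreviation: GI50, concentration required for 50% inhibition of growth. TGI marks complete inhibition of growth.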
# System: KM12 colon
# Test: NCI anticancer screen, dose series, 48 h
SMILES,GI50,TGI
N[C@@H]1CCCC[C@@H]1N.O=P([O-])([O-])CN(CCN(CP(=O)([O-])[O-])CP(=O)([O-])[O-])CP(=O)([O-])[O-].[Pt+2],> 25 µM,> 25 µM
CCC(=C/[C@H](C)C/C=C/C(C)=C/[C@@H](C)C(=O)[C@@H](C)[C@H](O)[C@@H](C)CC)/C=C/[C@H]1OC(=O)C=C[C@@H]1C,< 0.01 µM,1.15 µM
COc1ccc(OC)c(N2CC(N)C2=O)c1 (stereo not given),–,> 100 µM
Nc1ccccc1SC(CC(=O)c1ccccc1)c1cccc([N+](=O)[O-])c1 (stereo not given),6.24 µM,19.3 µM
O=C1CCCCN1c1ccccc1C#C/C=C\C#Cc1ccccc1C(F)(F)F,1.8 µM,11.4 µM
O=C(/C=C/c1ccc([N+](=O)[O-])cc1)c1ccc(NCc2nc3ccccc3[nH]2)cc1,–,3.47 µM
CN1CC[C@@H](NC(=O)Nc2ccc(C#N)cc2)C[C@@H]1c1nc2ccccc2[nH]1,> 100 µM,> 100 µM
CN(C)CC1CC/C(=C\c2ccc(O)cc2)C1=O (stereo not given),–,16.6 µM
O=c1ccc2ccccc2cc1[O-].O=c1ccc2ccccc2cc1[O-].[O]=[U+2]=[O],7.15 µM,69.7 µM
Cc1ccc(-n2c3nc(=O)[nH]c(=O)c-3cc3cc([N+](=O)[O-])ccc32)cc1,3.79 µM,16.1 µM
O=C1NC(=NC(CO)Cc2ccccc2)S/C1=C\c1ccc2ncccc2c1 (stereo not given),12.4 µM and 2.25 µM,> 25 µM
COC(=O)C(CCCN1C(=O)c2ccccc2C1=O)C(=O)OC,–,> 100 µM
COc1cc(/C(C#N)=C/c2nc3c(N4CCOCC4)nc(Cl)nc3n2C)cc(OC)c1OC,< 0.01 µM,4.36 µM
Cc1nnc(NC(=O)c2nc(S(=O)(=O)Cc3ccc(F)cc3)ncc2Cl)s1,18.5 µM,37 µM
CC(C)[C@@H]1C=C2CC[C@H]3[C@](C)(CN)CCC[C@]3(C)[C@H]2CC1,1.76 µM,3.23 µM

# System: NCI-H522 lung
# Test: NCI anticancer screen, dose series, 48 h
SMILES,GI50,TGI
CC1(COc2ccc3c(c2)ncn3-c2ccc3cccc(N4CCC(N)CC4)c3n2)COC1,1.21 µM and 1.6 µM,3.3 µM and 5.19 µM
O=C(/C=C/c1ccc(O)cc1)c1ccc(O)cc1,–,9.22 µM
S=c1sc2c(n1-c1ccccc1)NC=NC2S (stereo not given),–,> 100 µM
CCOC(=O)C1=C(C)N(c2ccc(F)cc2F)[C@]2(C#N)C(O)=C(Cl)C(Cl)=C(O)[C@]12C#N,> 100 µM,> 100 µM
Cc1csc(-c2nnc(Nc3ccc(Oc4ncccc4-c4ccnc(N)n4)cc3)c3ccccc23)c1,5.31 µM,> 69.1 µM
CCCCCCCCCCn1cc[n+](C)c1,1.86 µM,10.4 µM
O=C(CCCSc1nc(-c2ccccc2)cc(-c2ccccc2)n1)NO,1.86 µM,9.51 µM
c1ccc(NCn2cnc3ccccc32)cc1,–,> 100 µM
CC1SC(c2ccc(F)cc2)N(NC(=O)C(O)c2ccccc2)C1=O (stereo not given),> 100 µM,> 100 µM
N#C/C(=C\c1cccc(Cl)c1Cl)c1ccccc1,–,> 100 µM
COCCOc1ccc(-c2nc3ccc(-c4nc5ccc(N6CCN(C)CC6)cc5[nH]4)cc3[nH]2)cc1,0.341 µM,2.36 µM
Nc1n[nH]c2cccc(C#Cc3cccc(C(=O)Nc4ccc(CN5CCOCC5)c(C(F)(F)F)c4)c3)c12,2.52 µM,9.28 µM
COc1ccc(-c2cn[nH]c2-c2cc(OC)c(OC)c(OC)c2)cc1,0.0101 µM,0.0385 µM
N[C@@H]1CCCC[C@@H]1N.O=P([O-])([O-])CN(CCN(CP(=O)([O-])[O-])CP(=O)([O-])[O-])CP(=O)([O-])[O-].[Pt+2],> 25 µM,> 25 µM
CCC(=C/[C@H](C)C/C=C/C(C)=C/[C@@H](C)C(=O)[C@@H](C)[C@H](O)[C@@H](C)CC)/C=C/[C@H]1OC(=O)C=C[C@@H]1C,< 0.01 µM,–
COc1ccc(OC)c(N2CC(N)C2=O)c1 (stereo not given),–,> 100 µM
Nc1ccccc1SC(CC(=O)c1ccccc1)c1cccc([N+](=O)[O-])c1 (stereo not given),15 µM,29.5 µM
O=C1CCCCN1c1ccccc1C#C/C=C\C#Cc1ccccc1C(F)(F)F,1.19 µM,3.1 µM
O=C(/C=C/c1ccc([N+](=O)[O-])cc1)c1ccc(NCc2nc3ccccc3[nH]2)cc1,–,11.9 µM
CN1CC[C@@H](NC(=O)Nc2ccc(C#N)cc2)C[C@@H]1c1nc2ccccc2[nH]1,> 100 µM,> 100 µM
CN(C)CC1CC/C(=C\c2ccc(O)cc2)C1=O (stereo not given),–,3.17 µM
O=c1ccc2ccccc2cc1[O-].O=c1ccc2ccccc2cc1[O-].[O]=[U+2]=[O],11.6 µM,56 µM
Cc1ccc(-n2c3nc(=O)[nH]c(=O)c-3cc3cc([N+](=O)[O-])ccc32)cc1,33.2 µM,77.5 µM
O=C1NC(=NC(CO)Cc2ccccc2)S/C1=C\c1ccc2ncccc2c1 (stereo not given),8.38 µM and 2.85 µM,> 25 µM and 10 µM
COC(=O)C(CCCN1C(=O)c2ccccc2C1=O)C(=O)OC,–,> 100 µM
COc1cc(/C(C#N)=C/c2nc3c(N4CCOCC4)nc(Cl)nc3n2C)cc(OC)c1OC,< 0.01 µM,2.88 µM
Cc1nnc(NC(=O)c2nc(S(=O)(=O)Cc3ccc(F)cc3)ncc2Cl)s1,0.729 µM,2.46 µM
CC(C)[C@@H]1C=C2CC[C@H]3[C@](C)(CN)CCC[C@]3(C)[C@H]2CC1,1.91 µM,4.16 µM

# System: OVCAR-8 ovarian
# Test: NCI anticancer screen, dose series, 48 h
SMILES,GI50,TGI
CC1(COc2ccc3c(c2)ncn3-c2ccc3cccc(N4CCC(N)CC4)c3n2)COC1,2.82 µM and 2.84 µM,10.7 µM and > 10 µM
O=C(/C=C/c1ccc(O)cc1)c1ccc(O)cc1,–,41.6 µM
S=c1sc2c(n1-c1ccccc1)NC=NC2S (stereo not given),–,> 100 µM
CCOC(=O)C1=C(C)N(c2ccc(F)cc2F)[C@]2(C#N)C(O)=C(Cl)C(Cl)=C(O)[C@]12C#N,> 100 µM,> 100 µM
Cc1csc(-c2nnc(Nc3ccc(Oc4ncccc4-c4ccnc(N)n4)cc3)c3ccccc23)c1,–,> 100 µM
CCCCCCCCCCn1cc[n+](C)c1,1.67 µM,15.8 µM
O=C(CCCSc1nc(-c2ccccc2)cc(-c2ccccc2)n1)NO,0.484 µM,18.3 µM
c1ccc(NCn2cnc3ccccc32)cc1,–,> 100 µM
CC1SC(c2ccc(F)cc2)N(NC(=O)C(O)c2ccccc2)C1=O (stereo not given),> 100 µM,> 100 µM
N#C/C(=C\c1cccc(Cl)c1Cl)c1ccccc1,–,> 100 µM
COCCOc1ccc(-c2nc3ccc(-c4nc5ccc(N6CCN(C)CC6)cc5[nH]4)cc3[nH]2)cc1,0.931 µM,23.4 µM
Nc1n[nH]c2cccc(C#Cc3cccc(C(=O)Nc4ccc(CN5CCOCC5)c(C(F)(F)F)c4)c3)c12,2.54 µM,8.18 µM
COc1ccc(-c2cn[nH]c2-c2cc(OC)c(OC)c(OC)c2)cc1,0.05 µM,38.1 µM
N[C@@H]1CCCC[C@@H]1N.O=P([O-])([O-])CN(CCN(CP(=O)([O-])[O-])CP(=O)([O-])[O-])CP(=O)([O-])[O-].[Pt+2],> 25 µM,> 25 µM
CCC(=C/[C@H](C)C/C=C/C(C)=C/[C@@H](C)C(=O)[C@@H](C)[C@H](O)[C@@H](C)CC)/C=C/[C@H]1OC(=O)C=C[C@@H]1C,< 0.01 µM,10.3 µM
COc1ccc(OC)c(N2CC(N)C2=O)c1 (stereo not given),–,> 100 µM
Nc1ccccc1SC(CC(=O)c1ccccc1)c1cccc([N+](=O)[O-])c1 (stereo not given),14.9 µM,28.5 µM
O=C1CCCCN1c1ccccc1C#C/C=C\C#Cc1ccccc1C(F)(F)F,1.49 µM,5.64 µM
O=C(/C=C/c1ccc([N+](=O)[O-])cc1)c1ccc(NCc2nc3ccccc3[nH]2)cc1,–,12.9 µM
CN1CC[C@@H](NC(=O)Nc2ccc(C#N)cc2)C[C@@H]1c1nc2ccccc2[nH]1,> 100 µM,> 100 µM
CN(C)CC1CC/C(=C\c2ccc(O)cc2)C1=O (stereo not given),–,14.6 µM
O=c1ccc2ccccc2cc1[O-].O=c1ccc2ccccc2cc1[O-].[O]=[U+2]=[O],8.83 µM,59.9 µM
Cc1ccc(-n2c3nc(=O)[nH]c(=O)c-3cc3cc([N+](=O)[O-])ccc32)cc1,38.6 µM,> 100 µM
O=C1NC(=NC(CO)Cc2ccccc2)S/C1=C\c1ccc2ncccc2c1 (stereo not given),> 21.1 µM and 5.24 µM,> 25 µM
COC(=O)C(CCCN1C(=O)c2ccccc2C1=O)C(=O)OC,–,> 100 µM
COc1cc(/C(C#N)=C/c2nc3c(N4CCOCC4)nc(Cl)nc3n2C)cc(OC)c1OC,< 0.01 µM,31.3 µM
Cc1nnc(NC(=O)c2nc(S(=O)(=O)Cc3ccc(F)cc3)ncc2Cl)s1,2.72 µM,7.77 µM
CC(C)[C@@H]1C=C2CC[C@H]3[C@](C)(CN)CCC[C@]3(C)[C@H]2CC1,2.28 µM,5.7 µM
